Assay results reported in patent publication US20040058940A1, “Pharmaceutical formulation comprising thienopyrimidines and antithrombotics, calcium antagonists, prostaglandins or prostaglandin derivatives (2)” (priority 2000, published 2004).

melting point	SMILES
218 °C	COc1ccc(CNc2nc(CCC(=O)O)nc3sc4ccccc4c23)cc1Cl [Example 2, 3-[4-(3-chloro-4-methoxybenzylamino)-benzothieno-[2,3-d]-pyrimidin-2-yl]propionic acid]
203 to 204 °C	COC(=O)c1ccc(-c2nc(NCc3ccc(OC)c(Cl)c3)c3c(n2)sc2ccccc23)cc1 [Example 3, methyl 4-[4-(3-chloro-4-methoxybenzylamino)-[1]-benzothieno-[2,3-d]-pyrimidin-2-yl]benzoate]
